Test [1] deals with T1, GLP-1R (Homo sapiens, UniProt P43220). Briefly: Tag-lite binding assay (competition with GLP-1 receptors red agonist). The settings on record: for IC50: HEK293 GLP-1 cells labeled with SNAP-Lumi4-Tb, red agonist 4.917 nM, 23° C., 2 h; for Ki: calculated from sample IC50 and red agonist Kd. The procedure: B. Tag-Lite Binding Assay
The cell line was constructed by WuXi.
10) Dispense cells into cell plate (1.8 M cells/well in 2 ml medium of 6-well plate, total 4 wells).
Second Day: Tag-Lite Binding Assay
3) The cell culture medium is removed from the 6-well plate and then 1 mL of Tag-lite SNAP-Lumi4-Tb diluted in Tag-lite labeling medium are added gently on the cells.
7) The testing compounds and reference compound are serially diluted with 3-fold, 10 points using Echo, then transfer 100 nL compounds to the assay plate.
8) Add the labeled cells to each well according to the plate map, 10000 cells/10 uL/well. Centrifuge the plate at 1000 rpm for 1 min.
9) Incubate the plate at 23° C., 30 min.
10) Add 50 nL of red agonist (final conc.: 4.917 nM) to destination plate using Echo.
11) Incubate the plate at 23° C. for 2 h.
12) Read the plate on an HTRF® compatible reader (at 665 nm and 620 nm).
% Inhibition=100%−(Ratio−LC)/(HC−LC)*100%
HC: The average ratio of adding DMSO wells
LC: The average ratio of adding the top concentration of reference compounds wells
b) The “log (inhibitor) vs. response—Variable slope” model in GraphPad Prism 5.0 was used to fit the dose-response curve of each sample. The sample concentration (x) and its corresponding % Inhibition data (y) were substituted into the model. The sample concentration (abscissa) was x=log(x) transformed. The transformed xy was used as the sample curve to obtain the IC50.
c) Calculate the sample Ki according to the sample IC50 and red agonist Kd. S in the formula is the actual used concentration of red agonist.

In test [2] the target is T1, GLP-1R. Put plainly: GLP-1R agonist cAMP stimulation assay (HTRF cAMP). Format: cell-based. The conditions noted are these: HEK293 cell line expressing GLP-1 target; HTRF cAMP agonist mode, 30 min at RT. Summed up: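 Read-out was HTRF (665/615 ratio), interpolated onto a cAMP standard curve and normalised to DMSO (0%) and maximal GLP-1(7-37) reference (100%) wells. Assay: GLP-1R cells at 1.0×E5/mL incubated with compound dilution series (3-fold, 10 points) for 30 min at room temperature before 60 min detection.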
Background: In TR-FRET formats the signal depends on donor and acceptor labels being close together.

T1 sequence (P43220 24-463): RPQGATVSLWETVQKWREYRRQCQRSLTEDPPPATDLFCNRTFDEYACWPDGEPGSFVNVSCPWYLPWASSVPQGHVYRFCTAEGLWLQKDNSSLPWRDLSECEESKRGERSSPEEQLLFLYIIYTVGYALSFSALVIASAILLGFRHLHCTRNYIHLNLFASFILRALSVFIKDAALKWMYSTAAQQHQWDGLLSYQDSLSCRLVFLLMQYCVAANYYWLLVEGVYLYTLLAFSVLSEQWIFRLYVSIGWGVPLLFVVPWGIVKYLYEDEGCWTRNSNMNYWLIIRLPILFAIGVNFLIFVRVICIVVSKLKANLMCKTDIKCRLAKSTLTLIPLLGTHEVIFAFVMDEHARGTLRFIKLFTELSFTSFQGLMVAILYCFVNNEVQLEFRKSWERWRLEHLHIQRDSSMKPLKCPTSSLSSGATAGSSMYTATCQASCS

In general, IC50 refers to the point on the concentration scale where inhibition reaches its midpoint. High values mean lower potency, low ones higher potency. In general, Ki refers to a measure of affinity in units of concentration, obtained from inhibition or displacement. Broadly, the EC50 is the concentration needed to bring the measured effect to its halfway point. A higher EC50 goes with weaker potency. Regarding `Cc1n[nH]c2ccc(C(=O)Nc3ccc4c(c3)nc(CN3CC=C(c5cccc(OCc6ccc(Cl)cn6)n5)CC3)n4C[C@@H]3CCO3)cc12` [Compound 391], in test [1], the IC50 was 116 nM and the Ki is 70.3 nM. Moreover, in test [2], the EC50 is 0.91 nM.

In the case of `Cc1n[nH]c2c(F)cc(C(=O)Nc3ccc4c(c3)nc(Cc3c(F)cc(-c5cccc6c5O[C@@](C)(c5ccc(Cl)cn5)O6)cc3F)n4CC3CCO3)cc12` (stereo partly shown) [Compound 386], in test [1], the IC50 is 120 nM and the Ki was 69.9 nM. This compound also returned an EC50 in test [2] of 0.15 nM.

`Cc1n[nH]c2ccc(C(=O)Nc3ccc4c(c3)nc(CN3CCC(c5cccc6c5OC(C)(c5ccc(Cl)cc5F)O6)CC3)n4CC3CCO3)cc12` (stereo not shown) [Compound 342]: in test [1], the IC50 turned out to be 140 nM and the Ki was 72.2 nM. In test [2], the EC50 turned out to be 0.91 nM.

Consider `CCn1cncc1Cn1c(Cc2cc(F)c(-c3cccc(OCc4ccc(Cl)cc4F)n3)cc2F)nc2cc(NC(=O)c3cc(F)c4[nH]nc(C)c4c3)ccc21` [Compound 414], for which, in test [1], the IC50 was 31.7 nM and the Ki is 15.6 nM. The compound also returned an EC50 in test [2] of 0.57 nM.

As for `Cc1n[nH]c2c(F)cc(NC(=O)c3ccc4c(c3)nc(CN3CCC(c5cccc(OCc6ccc(C#N)cc6F)n5)CC3)n4C[C@@H]3CCO3)cc12` [Compound 126], in test [1], the IC50 is 1400 nM and the Ki was 806 nM. In test [2], this compound gave an EC50 of 0.18 nM.

Turning to `CCn1cncc1Cn1c(Cc2c(F)cc(-c3cccc(OCc4ccc(Cl)cc4F)n3)cc2F)nc2cc(NC(=O)c3cc(F)c4[nH]nc(C)c4c3)ccc21` [Compound 415], in test [1], the IC50 worked out at 233 nM and the Ki is 117 nM. Moreover, in test [2], the EC50 stood at 0.71 nM.

Consider `Cc1cc(NC(=O)c2ccc3c(c2)nc(CN2CCC(c4cccc(OCc5ccc(Cl)cc5F)n4)CC2)n3C[C@@H]2CCO2)cc2cn[nH]c12` [Compound 80], for which, in test [1], the IC50 is 2320 nM and the Ki was 1160 nM. In addition, in test [2], it took 2.05 nM to reach a half-maximal effect (EC50).

Turning to `Cc1n[nH]c2c(C)cc(C(=O)Nc3ccc4c(c3)nc(CN3CC=C(c5cccc(OCc6ccc(C#N)cc6F)n5)CC3)n4C[C@@H]3CCO3)cc12` [Compound 229], in test [1], the IC50 was found to be 122 nM and the Ki is 75.9 nM. In test [2], the midpoint of the response, the EC50, lay at 0.21 nM.

Regarding `Cc1n[nH]c2c(C)cc(NC(=O)c3ccc4c(c3)nc(CN3CC=C(c5cccc(OCc6ccc(Cl)cc6F)n5)CC3)n4C[C@@H]3CCO3)cc12` [Compound 151], in test [1], the IC50 came out at 1050 nM and the Ki is 519 nM. In test [2], the midpoint of the response, the EC50, lay at 0.6 nM.

For the compound `Cc1n[nH]c2c(F)cc(C(=O)Nc3ccc4c(c3)nc(Cc3c(F)cc(-c5cccc6c5O[C@](C)(c5ccc(Cl)cn5)O6)cc3F)n4CC3CCO3)cc12` (stereo partly shown) [Compound 387], in test [1], the IC50 worked out at 346 nM and the Ki was 205 nM. This compound displayed an EC50 in test [2] of 0.86 nM.

For `Cc1cc(NC(=O)c2ccc3c(c2)nc(CN2CC=C(c4cccc(OCc5ccc(C#N)cc5F)n4)CC2)n3C[C@@H]2CCO2)cc2c1NC(=O)C21CC1` [Compound 178], in test [1], the IC50 was 875 nM and the Ki was 430 nM. The EC50 in test [2] was found to be 0.19 nM.

With `CCn1cncc1Cn1c(Cc2c(F)cc(-c3cccc4c3OC(C)(c3ccc(Cl)cn3)O4)cc2F)nc2cc(NC(=O)c3cc(F)c4[nH]nc(C)c4c3)ccc21` (stereo not shown) [Compound 409], in test [1], the IC50 was determined as 486 nM and the Ki is 237 nM. The compound also had a concentration for a half-maximal effect (EC50) in test [2] of 0.42 nM.

On to `CCn1cncc1Cn1c(Cc2c(F)cc(-c3cccc(OCc4ccc(Cl)cn4)n3)cc2F)nc2cc(NC(=O)c3cc(F)c4[nH]nc(C)c4c3)ccc21` [Compound 407], for which, in test [1], the IC50 turned out to be 180 nM and the Ki is 110 nM. Moreover, the EC50 in test [2] was 0.16 nM.

Turning to `Cc1n[nH]c2c(F)cc(C(=O)Nc3ccc4c(c3)nc(C3CC35CCN(c3cccc(OCc6ccc(Cl)cc6F)n3)CC5)n4CC3CCO3)cc12` (stereo not shown) [Compound 244], in test [1], the IC50 was found to be 189 nM and the Ki was 110 nM. In test [2], this compound displayed an EC50 of 0.33 nM.

For the compound `O=C(NCC(=O)N1CC(F)(F)C[C@H]1C(=O)O)c1ccc2c(c1)nc(CN1CCC(c3cccc(OCc4ccc(Cl)cc4F)n3)CC1)n2C[C@@H]1CCO1` [Compound 62], in test [1], the IC50 was 2630 nM and the Ki was 1320 nM. Also, the midpoint of the response in test [2], the EC50, lay at 0.51 nM.

Take `O=C(Nc1ccc2c(c1)nc(CN1CC=C(c3cccc(OCc4ccc(Cl)cn4)n3)CC1)n2C[C@@H]1CCO1)c1ccc2[nH]c(=O)[nH]c2c1` [Compound 207]: in test [1], the IC50 was 149 nM and the Ki was 82.4 nM. In test [2], a half-maximal response (EC50) required 0.43 nM.

In the case of `Cc1n[nH]c2c(F)cc(C(=O)Nc3ccc4c(c3)nc(CN3CCC(c5cccc6c5OC(C)(c5ccc(Cl)cc5F)O6)CC3)n4CC3CCO3)cc12` (stereo not shown) [Compound 340], in test [1], the IC50 is 123 nM and the Ki was 88.5 nM. Moreover, the midpoint of the response in test [2], the EC50, lay at 0.28 nM.

For `O=C(Nc1ccc2c(c1)nc(CN1CC=C(c3cccc(OCc4ccc(Cl)cc4F)n3)CC1)n2C[C@@H]1CCO1)c1ccc2c(c1)C1(CC1)C(=O)N2` [Compound 203], in test [1], the IC50 is 158 nM and the Ki was 90.3 nM. In addition, in test [2], the midpoint of the response, the EC50, lay at 0.24 nM.

As to `O=C(Nc1ccc2[nH]nnc2c1)c1ccc2c(c1)nc(CN1CC=C(c3cccc(OCc4ccc(Cl)cc4F)n3)CC1)n2C[C@@H]1CCO1` [Compound 166], in test [1], the IC50 is 2650 nM and the Ki was 1320 nM. This compound had an EC50 in test [2] of 0.76 nM.

`Cc1n[nH]c2c(C)cc(C(=O)Nc3ccc4c(c3)nc(CN3CCC(c5cccc6c5OC(C)(c5ccc(Cl)cc5F)O6)CC3)n4CC3CCO3)cc12` (stereo not shown) [Compound 341]: in test [1], the IC50 amounted to 158 nM and the inhibition constant Ki is 95.5 nM. The compound further came in with an EC50 in test [2] of 0.31 nM.

In the case of `Cc1n[nH]c2c(C)cc(NC(=O)c3ccc4c(c3)nc(CN3CC=C(c5cccc6c5O[C@](C)(c5ccc(Cl)cn5)O6)CC3)n4CC3CCO3)cc12` (stereo partly shown) [Compound 383], in test [1], the IC50 was determined as 1480 nM and the Ki is 899 nM. The midpoint of the response in test [2], the EC50, lay at 1.92 nM.

`Cc1cc(C(=O)Nc2ccc3nc(CN4CC=C(c5cccc(OCc6ccc(Cl)cc6F)n5)CC4)n(C[C@@H]4CCO4)c3c2)cc2c1NC(=O)C21CC1` [Compound 282] displayed a half-maximal effective concentration (EC50) in test [2] of 4.32 nM.

In the case of `COCCn1c(Cc2ccc(-c3cccc(OCc4ccc(C#N)cc4F)n3)cc2)nc2cc(C(=O)NCCc3ccc(C(=O)O)cc3)ccc21` [Compound 12], the EC50 in test [2] is 122 nM.

On to `O=C(Nc1ccc2c(c1)nc(CN1CC=C(c3cccc(OCc4ccc(Cl)cc4F)n3)CC1)n2C[C@@H]1CCO1)c1cc(F)c2c(c1)C1(CC1)C(=O)N2` [Compound 208], for which, in test [2], the EC50 was 0.25 nM.

`Cc1n[nH]c2c(F)cc(NC(=O)c3ccc4c(c3)nc(CN3CC=C(c5cccc6c5O[C@](C)(c5ccc(C#N)cc5F)O6)CC3)n4CC3CCO3)cc12` (stereo partly shown) [Compound 300]: the midpoint of the response in test [2], the EC50, lay at 0.19 nM.

On to `CCc1cc(NC(=O)c2ccc3c(c2)nc(CN2CC=C(c4cccc(OCc5ccc(Cl)cc5F)n4)CC2)n3C[C@@H]2CCO2)cc2c(C)n[nH]c12` [Compound 170], for which, in test [2], the EC50 amounted to 3.55 nM.

Regarding `Cc1n[nH]c2ncc(NC(=O)c3ccc4c(c3)nc(CN3CC=C(c5cccc(OCc6ccc(Cl)cc6F)n5)CC3)n4C[C@@H]3CCO3)cc12` [Compound 189], in test [2], the EC50 was 3.54 nM.

In turn, `Cc1cc(C(=O)Nc2ccc3c(c2)nc(CN2CCC(c4cccc5c4OC(C)(c4ccc(Cl)cc4F)O5)CC2)n3C[C@@H]2CCO2)cc2[nH]c(=O)[nH]c12` (stereo partly shown) [Compound 345] registered an EC50 in test [2] of 0.21 nM.

In turn, `Cc1cc(C(=O)Nc2ccc3c(c2)nc(Cc2c(F)cc(-c4cccc5c4OC(C)(c4ccc(Cl)cc4F)O5)cc2F)n3C[C@@H]2CCO2)cc2c1NC(=O)C21CC1` (stereo partly shown) [Compound 319] displayed an EC50 in test [2] of 0.43 nM.

On to `O=C(Nc1ccc2c(c1)nc(CN1CC=C(c3cccc(OCc4ccc(Cl)cc4F)n3)CC1)n2C[C@@H]1CCO1)c1ccc2[nH]nc(C(F)F)c2c1` [Compound 219], for which the EC50 in test [2] was found to be 1.21 nM.

Turning to `Cc1n[nH]c2ncc(C(=O)Nc3ccc4c(c3)nc(CN3CC=C(c5cccc(OCc6ccc(C#N)cc6F)n5)CC3)n4C[C@@H]3CCO3)cc12` [Compound 234], the midpoint of the response in test [2], the EC50, lay at 3.87 nM.

`CC1(c2ccc(Cl)cc2F)Oc2cccc(-c3cc(F)c(Cc4nc5cc(NC(=O)c6cc(F)c7c(c6)C(C6CC6)C(=O)N7)ccc5n4C[C@@H]4CCO4)c(F)c3)c2O1` (stereo partly shown) [Compound 326] yielded an EC50 in test [2] of 0.64 nM.

For `Cc1n[nH]c2c(C(F)F)cc(NC(=O)c3ccc4c(c3)nc(CN3CCC(c5cccc(OCc6ccc(Cl)cc6F)n5)CC3)n4C[C@@H]3CCO3)cc12` [Compound 119], the EC50 in test [2] was 0.63 nM.

For `O=C(Nc1ccc2[nH]c(=O)[nH]c2n1)c1ccc2c(c1)nc(CN1CCC(c3cccc(OCc4ccc(Cl)cc4F)n3)CC1)n2C[C@@H]1CCO1` [Compound 93], the EC50 in test [2] is 29.8 nM.
